Results published in PubChem BioAssay (NCI).
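Five concentrations, 48 hours, 96-well plates. Here, GI50 denotes the concentration required for 50% inhibition of growth. TGI is the concentration that stops growth completely.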

Tests used:
Test in all cases: NCI-60 cell line screen, 48 h
CCRF-CEM leukemia = system: CCRF-CEM leukemia
COLO 205 colon = system: COLO 205 colon
HCC-2998 colon = system: HCC-2998 colon
HCT-116 colon = system: HCT-116 colon
HL-60(TB) leukemia = system: HL-60(TB) leukemia
MALME-3M melanoma = system: MALME-3M melanoma
MCF7 breast = system: MCF7 breast
NCI-H226 lung = system: NCI-H226 lung
T-47D breast = system: T-47D breast
U251 CNS = system: U251 CNS

Row | SMILES | TGI (CCRF-CEM leukemia) | TGI (COLO 205 colon) | TGI (HCC-2998 colon) | TGI (HCT-116 colon) | TGI (HL-60(TB) leukemia) | TGI (MALME-3M melanoma) | TGI (MCF7 breast) | TGI (NCI-H226 lung) | TGI (T-47D breast) | TGI (U251 CNS) | GI50 (CCRF-CEM leukemia) | GI50 (COLO 205 colon) | GI50 (HCC-2998 colon) | GI50 (HCT-116 colon) | GI50 (HL-60(TB) leukemia) | GI50 (MALME-3M melanoma) | GI50 (MCF7 breast) | GI50 (NCI-H226 lung) | GI50 (T-47D breast) | GI50 (U251 CNS)
1 | O=C(CCN1CCCCC1)N1CCc2c([nH]c3ccccc23)C1c1cccnc1 (stereo not given) | 99 µM | 44.8 µM | 54.8 µM | > 100 µM | > 93.2 µM | 41.6 µM | > 100 µM | > 100 µM | > 100 µM | > 100 µM |  |  |  |  |  |  |  |  |  | 
2 | COC(=O)c1oc2c(C(=O)/C=C/c3ccc(OC)cc3)c(OCCN(C)C)ccc2c1C | 6.93 µM | 19.3 µM | 24.6 µM | 19.7 µM | 6.01 µM | 27.8 µM | 9.89 µM | 27.8 µM | 16.8 µM | 19.3 µM | 2.24 µM | 4.59 µM | 10.2 µM | 4.64 µM | 1.88 µM | 11.4 µM | 2.98 µM | 13.1 µM | 3.1 µM | 5.72 µM
3 | CN1CCN(Cc2ccc(NC(=O)c3cncc(C#Cc4cnc(N)c5cccnc45)c3)cc2C(F)(F)F)CC1 | > 50 µM | 1.12 µM | > 50 µM | 6.6 µM | 1.17 µM | 0.273 µM | > 50 µM | > 50 µM | > 50 µM | > 31.5 µM | 0.234 µM | 0.0956 µM | 0.484 µM | 0.224 µM | 0.223 µM | 0.0558 µM | 0.69 µM | 0.191 µM | 0.36 µM | 0.233 µM
4 | CCOC(=O)C(C#N)C1=CC(=O)C(=O)c2ccc(O)cc21 (stereo not given) | > 100 µM | > 100 µM | > 100 µM | > 100 µM | > 100 µM | > 100 µM | > 100 µM | > 100 µM | > 100 µM | > 100 µM |  |  |  |  |  |  |  |  |  | 
5 | Cc1cn(Cc2ccc(C34CC5CC(CC(C5)C3)C4)c(O)c2)c(=O)[nH]c1=O |  | 32.2 µM | 21.4 µM | 22.5 µM | 6.53 µM | 29.7 µM | 72.9 µM | 29.9 µM | 51.8 µM | 24.8 µM |  | 16.4 µM | 9.45 µM | 10.7 µM | 2.73 µM | 14.6 µM | 7.96 µM | 15.4 µM | 6.45 µM | 11.9 µM
6 | O=C1c2ccccc2-c2c1c1ccccc1c(=O)n2CCCNCCn1c2c(c3ccccc3c1=O)C(=O)c1ccccc1-2 |  | > 100 µM |  | 3.13 µM | 96.8 µM | 40.3 µM | 13.8 µM | 20.7 µM | 34.6 µM | 3.29 µM |  | 36.2 µM |  | 1.05 µM | 34.6 µM | 22.1 µM | 3.47 µM | 4.59 µM | 17.8 µM | 1.61 µM
7 | CSc1nc2c(c(=O)n1C)CN(C1CCCCC1)C(=O)C(c1ccccc1)N2 (stereo not given) | > 100 µM | > 100 µM | > 100 µM | > 100 µM | 67.5 µM | 43.5 µM | 66 µM | > 100 µM | > 100 µM | > 100 µM | 11.3 µM | 30.9 µM | 35.9 µM | 36.6 µM | 17.5 µM | 10.9 µM | 19.3 µM | 77.3 µM | 29.3 µM | 41.4 µM
8 | O=C1O/C(=C/c2ccccc2)C(c2ccccc2)=C1O | > 100 µM | > 100 µM | > 100 µM | > 100 µM | 48.3 µM | > 100 µM | > 100 µM | > 100 µM | 74.2 µM | 82.7 µM |  |  |  |  |  |  |  |  |  | 
9 | CC1(C)CCCC(C)(C2CCC3(C)C2C(O)CC2C4(C)CCC(O)C(C)(C)C4CCC23C)O1 (stereo not given) | > 100 µM | > 100 µM | > 100 µM | > 100 µM | > 100 µM | > 100 µM | > 100 µM | > 100 µM | > 100 µM | > 100 µM |  |  |  |  |  |  |  |  |  | 
10 | CC(C)COc1nc2c(c(=O)n(C)c(=O)n2C)n1C | > 100 µM | > 100 µM | > 100 µM | > 100 µM | > 100 µM | > 100 µM | > 100 µM | > 100 µM | > 100 µM | > 100 µM | > 100 µM | > 100 µM | > 100 µM | > 100 µM | > 100 µM | > 100 µM | > 100 µM | > 100 µM | > 100 µM | > 100 µM
11 | Nc1nc(/C=C\c2ccccc2)nc(N2CCN(c3ccccc3)CC2)n1 | > 100 µM | 35.8 µM | 41.5 µM | 31.7 µM | 66.3 µM |  | 84.1 µM | 94.5 µM | 41.9 µM | 69.2 µM | 37.3 µM | 16.4 µM | 17.9 µM | 13.5 µM | 25.4 µM |  | 26.5 µM | 27.9 µM | 11.6 µM | 24.3 µM
12 | CCN(CC)CCCC(C)N/C(=C1\C(=O)NC(=O)\C1=C(/NC(C)CCCN(CC)CC)c1cccc(OC)c1)c1cccc(OC)c1 (stereo not given) | 2.89 µM | 1.65 µM | 1.61 µM | 3.24 µM | 2.49 µM | 1.63 µM | 3.56 µM | 5.9 µM | 3.7 µM | 1.89 µM | 0.816 µM | 0.728 µM | 0.845 µM | 0.45 µM | 0.968 µM | 0.85 µM | 1.03 µM | 1.29 µM | 1.3 µM | 0.844 µM
13 | CC(=O)N1N=C(c2ccc(Nc3nc(Nc4ccc(F)cc4)nc(Nc4ccc(F)cc4)n3)cc2)CC1c1ccc(N(C)C)cc1 (stereo not given) | 49.9 µM | 22.6 µM | > 100 µM | 14.7 µM | 6.12 µM | 34.8 µM | 13.7 µM | 14.9 µM | 37.4 µM | 25.2 µM | 3.36 µM | 5.73 µM | 15.9 µM | 3.6 µM | 2 µM | 11.4 µM | 3.23 µM | 3.29 µM | 4.5 µM | 12.6 µM
14 | CO[C@H]1CC(O[C@@H]2/C(C)=C/C[C@@H]3C[C@@H](C[C@]4(CC[C@H](C)[C@@H](C5CCCCC5)O4)O3)OC(=O)[C@@H]3C=C(C)/C(=N/O)[C@H]4OC/C(=C\C=C\[C@@H]2C)[C@]43O)O[C@@H](C)C1O (stereo not given in full) |  | 1.8 µM | 1.57 µM | 1.4 µM | 2.27 µM | 3.15 µM | 2.46 µM | 1.43 µM | 3.09 µM | 1.47 µM |  | 0.93 µM | 0.831 µM | 0.704 µM | 1.01 µM | 1.17 µM | 0.972 µM | 0.73 µM | 1.1 µM | 0.759 µM
